Paper PMC8306578, “[^68Ga]Ga-DFO-c(RGDyK): Synthesis and Evaluation of Its Potential for Tumor Imaging in Mice” (International Journal of Molecular Sciences, 2021)
Like-named read-outs stand apart in the source and are kept apart here.

How the values were obtained:
[1] = format: physicochemical; settings: pH 7.4
Protocol: Aliquots of 50 μL were added to 450 μL PBS and 500 μL octanol, and the mixture was vigorously vortexed for 20 min at 1500 rpm. The aqueous and organic solvents were separated by centrifugation (2 min at 2000× g), and 50 μL aliquots of both layers were collected and measured in a gamma counter (PerkinElmer, Waltham, MA, USA). Log p values were calculated from the obtained data in Microsoft Office Excel 2010 (Microsoft, Redmond WA, USA) (mean of n = 6).

U-87 MG cells = test: Cell uptake assay in U-87 MG cells; format: cell-based, human; settings: 7 nM tracer, 500-fold excess (3.5 µM) inhibitor, 30-90 min, 37 °C
Protocol: (§1) Human glioblastoma multiforme U-87 MG cells (ATCC, Manassas, VA, USA) were cultured in Dulbecco’s Modified Eagle Medium (Merck, Darmstadt, Germany) supplemented with 10% fetal bovine serum, 0.1 mM non-essential amino acids, and 1.0 mM sodium pyruvate at 37 °C in a 5% carbon dioxide humidified incubator. Human melanoma cell lines M21 (fluorescence-activated cell sorting selected clone, which stably express αvβ3 integrin; αvβ3 integrin-positive) and M21-L (αvβ3 integrin-negative) originated from prof. Cheresh, Departments of Immunology and Vascular Biology, The Scripps Research Institute, La Jolla, CA, USA and were a kind gift of prof. Decristoforo, Department of Nuclear Medicine, Medical University Innsbruck, Austria. Both M21 and M21-L cells were cultured in Dulbecco’s Modified Eagle Medium (Merck, Darmstadt, Germany) supplemented with 10% fetal bovine serum. All the cells were subcultured and used for experiments at a confluency of 70–90%. Cell uptake assays were performed in 24-well plates cell at cellular confluency of 70–90%. […] Afterwards, the 24-well plates were rinsed with PBS and the cells were lysed by 0.1 M NaOH and measured for radioactivity in the gamma counter. The uptake of [^68Ga]Ga-DFO-c(RGDyK) was calculated as the mean of the percentage of the applied dose ± standard deviation.

M21 cells = test: Cell uptake assay in M21 (αvβ3-positive) cells; format: cell-based, human; settings: 7 nM tracer, 500-fold excess (3.5 µM) inhibitor, 60 min, 37 °C
Protocol: as §1

[2] = mouse, in vivo
Protocol: The animal studies were performed using female 8–10-week-old Balb/c and athymic Balb/c nude mice (Envigo, Horst, The Netherlands). The animals were acclimatized to laboratory conditions for 1 week prior to experimental use and housed in a specific-pathogen-free animal facility with free access to animal chow and water. During the experiments, general health and body weight of the animals were monitored. The number of animals was reduced as much as possible (n = 3 per group and time point) for all in vivo experiments. The tracer injection as well as small animal imaging was carried out under 2% isoflurane anesthesia (FORANE, Abbott Laboratories, Abbott Park, IL, USA) to minimize animal suffering and to prevent animal motion. […] The animals were sacrificed by cervical dislocation at 30 and 90 min post-injection (p.i.). Organs and tissues of interest (blood, spleen, pancreas, stomach, intestines, kidneys, liver, heart, lung, muscle, bone, and tumor) were collected, weighed, and measured in the gamma counter. The results were expressed as percentage of injected dose per gram organ (% ID/g).

[3] = design: dose or concentration left out as unconfirmed; settings: mouse, in vivo
Protocol: (§2) The animal studies were performed using female 8–10-week-old Balb/c and athymic Balb/c nude mice (Envigo, Horst, The Netherlands). The animals were acclimatized to laboratory conditions for 1 week prior to experimental use and housed in a specific-pathogen-free animal facility with free access to animal chow and water. During the experiments, general health and body weight of the animals were monitored. The number of animals was reduced as much as possible (n = 3 per group and time point) for all in vivo experiments. […]
(§3) For animal tumor models, athymic Balb/c nude mice were subcutaneously injected in the right flank with 5 × 10^6 U-87 MG cells mixed with Matrigel Matrix (Corning, NY, USA) at a 1:1 ratio or in the right and left flank with 5 × 10^6 M21 and M21-L cells. Tumor growth was continuously monitored by caliperation. […]
The animals were sacrificed by cervical dislocation at 30 and 90 min post-injection (p.i.). Organs and tissues of interest (blood, spleen, pancreas, stomach, intestines, kidneys, liver, heart, lung, muscle, bone, and tumor) were collected, weighed, and measured in the gamma counter. The results were expressed as percentage of injected dose per gram organ (% ID/g).

U-87 MG tumor = test: Static PET/CT imaging in U-87 MG tumor-bearing Balb/c nude mice; format: in vivo, mouse; settings: U-87 MG tumor mice, 30 and 90 min p.i.
Protocol: as §2, §3
(§4) PET/CT imaging of the experimental animals was performed with an Albira PET/SPECT/CT small animal imaging system (Bruker Biospin Corporation, Woodbridge, CT, USA). […] After reconstruction, the acquired data was viewed and analyzed with the appropriate software (PMOD software, PMOD Technologies Ltd., Zurich, Switzerland and VolView software, Kitware, Clifton Park, NY, USA).

M21 tumor = test: Static PET/CT imaging in M21 (αvβ3-positive) xenografted Balb/c nude mice; format: in vivo, mouse; settings: αvβ3 integrin-positive (M21) tumor tissue, 30 and 90 min p.i.
Protocol: as §2, §3, §4

M21-L tumor = test: Static PET/CT imaging in M21-L (αvβ3-negative) xenografted Balb/c nude mice; format: in vivo, mouse; settings: αvβ3 integrin-negative (M21-L) tumor tissue, 30 and 90 min p.i.
Protocol: as §2, §3, §4

For `CC(=O)N(O)CCCCCNC(=O)CCC(=O)N(O)CCCCCNC(=O)CCC(=O)N(O)CCCCCNC(=S)Nc1ccc(NC(=S)NCCCC[C@@H]2NC(=O)[C@@H](Cc3ccc(O)cc3)NC(=O)[C@H](CC(=O)O)NC(=O)CNC(=O)[C@H](CCCNC(=N)N)NC2=O)cc1` [[^68Ga]Ga-DFO-c(RGDyK), metal not drawn], the logP [1] was -2.01 ± 0.08, the “Blocking of cell uptake by excess cold NODAGA-c(RGDyK)” value (U-87 MG cells) was “could be blocked with NODAGA-c(RGDyK) by about half” and the “Blocking of cell uptake by excess cold NODAGA-c(RGDyK)” value (M21 cells) was “could only be blocked for the αvβ3-positive cells (M21)”. It also gave a tissue uptake at 1.5 h ([2]; Activity concentration in intestines) of 1.99 ± 0.01 %ID/g, a tissue uptake at 1.5 h ([2]; Activity concentration in kidneys) of 5.31 ± 0.12 %ID/g and a tissue uptake at 1.5 h ([2]; Activity concentration in stomach) of 1.78 ± 0.05 %ID/g. The tissue uptake at 0.5 h [3] was 3.03 ± 0.62 %ID/g, the tissue uptake at 1.5 h [3] was 1.54 ± 0.56 %ID/g and the PET/CT tumor visualization (U-87 MG tumor) was “clearly visualizing the tumor”. The PET/CT tumor uptake (M21 tumor) was “specific uptake of the radiotracer” and the PET/CT tumor uptake (M21-L tumor) was “no uptake was observed”.
